Data taken from patent US12172995B2, “Substituted indole and indazole compounds” (BRISTOL-MYERS SQUIBB COMPANY, priority 2018, dated 2024).

Experiments:
Type in all cases: cell-based
human TLR7 = target: T1, human TLR7 (Homo sapiens, UniProt Q9NYK1); assay: TLR7 inhibition reporter assay (HEK-Blue SEAP); conditions: HEK-Blue cells overexpressing human TLR7, stimulated with gardiquimod 7.5 μM, 22 hour incubation
T1 construct: host or cells: HEK-Blue cells
T1 sequence (Q9NYK1 27-1049): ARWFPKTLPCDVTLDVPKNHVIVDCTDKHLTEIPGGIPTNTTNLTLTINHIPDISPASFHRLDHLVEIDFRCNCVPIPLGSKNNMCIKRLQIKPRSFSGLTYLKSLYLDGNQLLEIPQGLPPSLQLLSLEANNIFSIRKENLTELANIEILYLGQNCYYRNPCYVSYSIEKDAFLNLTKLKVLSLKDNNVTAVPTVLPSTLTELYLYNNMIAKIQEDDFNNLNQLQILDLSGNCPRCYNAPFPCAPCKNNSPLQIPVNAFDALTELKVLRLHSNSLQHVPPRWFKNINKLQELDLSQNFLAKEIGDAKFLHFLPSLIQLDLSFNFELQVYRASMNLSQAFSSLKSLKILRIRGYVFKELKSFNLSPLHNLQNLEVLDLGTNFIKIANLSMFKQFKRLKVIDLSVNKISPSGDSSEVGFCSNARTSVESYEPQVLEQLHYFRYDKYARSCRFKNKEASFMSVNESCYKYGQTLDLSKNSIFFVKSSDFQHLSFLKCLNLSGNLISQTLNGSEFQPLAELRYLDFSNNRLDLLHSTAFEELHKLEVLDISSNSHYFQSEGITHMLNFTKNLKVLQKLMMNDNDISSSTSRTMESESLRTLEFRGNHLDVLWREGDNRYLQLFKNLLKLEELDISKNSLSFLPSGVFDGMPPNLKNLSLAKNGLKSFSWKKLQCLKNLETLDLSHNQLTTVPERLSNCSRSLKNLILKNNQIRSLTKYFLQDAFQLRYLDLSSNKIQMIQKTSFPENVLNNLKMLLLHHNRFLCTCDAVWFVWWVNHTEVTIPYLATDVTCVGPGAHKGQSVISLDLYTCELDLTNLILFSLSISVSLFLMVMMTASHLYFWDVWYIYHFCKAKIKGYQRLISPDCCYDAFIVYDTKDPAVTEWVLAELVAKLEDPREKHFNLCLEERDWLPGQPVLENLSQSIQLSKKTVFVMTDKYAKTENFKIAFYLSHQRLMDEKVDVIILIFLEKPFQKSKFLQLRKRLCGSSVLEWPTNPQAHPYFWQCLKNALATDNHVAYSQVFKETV
Description: (§1) TLR7/8/9 Inhibition Reporter Assays
(§2) HEK-Blue™-cells (Invivogen) overexpressing human TLR7, TLR8 or TLR9 receptors were used for screening inhibitors of these receptors using an inducible SEAP (secreted embryonic alkaline phosphatase) reporter gene under the control of the IFN-β minimal promoter fused to five NF-κB and AP-1-binding sites. Briefly, cells are seeded into Greiner 384 well plates (15000 cells per well for TLR7, 20,000 for TLR8 and 25,000 for TLR9) and then treated with test compounds in DMSO to yield a final dose response concentration range of 0.05 nM to 50 μM. After a 30 minute compound pre-treatment at room temperature, the cells are then stimulated with a TLR7 ligand (gardiquimod at a final concentration of 7.5 μM), TLR8 ligand (R848 at a final concentration of 15.9 μM) or TLR9 ligand (ODN2006 at a final concentration of 5 nM) to activate NF-κB and AP-1 which induce the production of SEAP. After a 22 hour incubation at 37° C., 5% CO2, SEAP levels are determined with the addition of HEK-Blue™ Detection reagent (Invivogen), a cell culture medium that allows for detection of SEAP, according to manufacturer's specifications. The percent inhibition is determined as the % reduction in the HEK-Blue signal present in wells treated with agonist plus DMSO alone compared to wells treated with a known inhibitor.

human TLR8 = target: T2, human TLR8 (Homo sapiens, UniProt Q9NR97); assay: TLR8 inhibition reporter assay (HEK-Blue SEAP); conditions: HEK-Blue cells overexpressing human TLR8, stimulated with R848 15.9 μM, 22 hour incubation
T2 construct: host or cells: HEK-Blue cells
T2 sequence (Q9NR97 27-1041): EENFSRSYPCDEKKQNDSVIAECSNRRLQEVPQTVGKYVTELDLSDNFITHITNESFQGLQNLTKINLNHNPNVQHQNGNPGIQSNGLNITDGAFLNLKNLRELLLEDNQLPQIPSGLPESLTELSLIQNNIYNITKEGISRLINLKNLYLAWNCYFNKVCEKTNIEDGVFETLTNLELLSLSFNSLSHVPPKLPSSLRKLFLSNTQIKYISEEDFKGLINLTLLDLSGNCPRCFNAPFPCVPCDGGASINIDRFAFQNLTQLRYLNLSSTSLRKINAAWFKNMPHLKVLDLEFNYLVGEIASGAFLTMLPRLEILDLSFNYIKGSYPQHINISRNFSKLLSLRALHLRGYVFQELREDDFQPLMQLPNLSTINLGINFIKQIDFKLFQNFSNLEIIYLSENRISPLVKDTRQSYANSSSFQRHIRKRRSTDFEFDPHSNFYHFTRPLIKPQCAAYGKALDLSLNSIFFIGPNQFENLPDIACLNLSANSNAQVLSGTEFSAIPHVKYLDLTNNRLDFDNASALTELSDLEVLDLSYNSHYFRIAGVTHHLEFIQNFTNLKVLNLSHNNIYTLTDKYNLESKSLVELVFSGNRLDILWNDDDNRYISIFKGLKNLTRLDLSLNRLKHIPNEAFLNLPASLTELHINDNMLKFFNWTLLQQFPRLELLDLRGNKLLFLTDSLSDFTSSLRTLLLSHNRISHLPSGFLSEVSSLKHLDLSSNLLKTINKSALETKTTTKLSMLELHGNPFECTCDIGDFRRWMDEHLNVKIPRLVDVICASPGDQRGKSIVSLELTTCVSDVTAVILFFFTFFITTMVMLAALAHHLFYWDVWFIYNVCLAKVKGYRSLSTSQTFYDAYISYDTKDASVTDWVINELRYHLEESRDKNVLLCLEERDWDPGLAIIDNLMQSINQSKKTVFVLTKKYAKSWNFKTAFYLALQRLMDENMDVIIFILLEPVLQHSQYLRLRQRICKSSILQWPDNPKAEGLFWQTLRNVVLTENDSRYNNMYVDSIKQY
Description: as §1, §2

human TLR9 = target: T3, human TLR9 (Homo sapiens, UniProt Q9NR96); assay: TLR9 inhibition reporter assay (HEK-Blue SEAP); conditions: HEK-Blue cells overexpressing human TLR9, stimulated with ODN2006 5 nM, 22 hour incubation
T3 construct: host or cells: HEK-Blue cells
T3 sequence (Q9NR96 26-1032): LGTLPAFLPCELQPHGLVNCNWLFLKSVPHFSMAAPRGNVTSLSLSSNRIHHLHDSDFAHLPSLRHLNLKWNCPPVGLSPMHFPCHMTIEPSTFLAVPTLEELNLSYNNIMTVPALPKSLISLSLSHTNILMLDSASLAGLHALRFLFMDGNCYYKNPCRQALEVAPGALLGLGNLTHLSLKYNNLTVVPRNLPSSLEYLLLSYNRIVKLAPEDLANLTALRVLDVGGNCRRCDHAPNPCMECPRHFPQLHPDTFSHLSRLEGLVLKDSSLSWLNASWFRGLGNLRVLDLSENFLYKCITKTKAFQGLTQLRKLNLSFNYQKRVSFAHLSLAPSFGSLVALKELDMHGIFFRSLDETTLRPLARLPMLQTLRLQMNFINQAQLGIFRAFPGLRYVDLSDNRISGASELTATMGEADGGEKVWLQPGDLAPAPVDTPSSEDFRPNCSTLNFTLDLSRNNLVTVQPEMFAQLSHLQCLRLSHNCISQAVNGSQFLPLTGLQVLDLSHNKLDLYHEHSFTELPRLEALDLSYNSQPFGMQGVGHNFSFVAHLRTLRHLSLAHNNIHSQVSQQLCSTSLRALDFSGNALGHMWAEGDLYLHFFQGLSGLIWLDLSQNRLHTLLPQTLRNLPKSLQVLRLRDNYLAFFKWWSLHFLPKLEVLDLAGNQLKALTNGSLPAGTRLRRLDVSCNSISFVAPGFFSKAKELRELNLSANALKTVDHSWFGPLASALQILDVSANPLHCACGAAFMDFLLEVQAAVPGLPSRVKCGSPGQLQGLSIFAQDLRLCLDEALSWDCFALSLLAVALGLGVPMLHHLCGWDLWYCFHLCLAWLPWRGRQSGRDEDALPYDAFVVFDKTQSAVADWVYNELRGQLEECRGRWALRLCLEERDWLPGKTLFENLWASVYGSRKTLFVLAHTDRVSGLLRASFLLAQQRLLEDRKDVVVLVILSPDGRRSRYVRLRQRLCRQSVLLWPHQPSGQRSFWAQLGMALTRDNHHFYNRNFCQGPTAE
Description: as §1, §2

SMILES	IC50 (human TLR7)	IC50 (human TLR8)	IC50 (human TLR9)
Cc1cc2c(C3CC(N(C)C)C3)n[nH]c2cc1-c1cc(C)c2ncnn2c1 (single isomer, unassigned) [Example 7, N,N-dimethyl-3-(5-methyl-6-(8-methyl-[1,2,4]triazolo[1,5-a]pyridin-6-yl)-1H-indazol-3-yl)cyclobutan-1-amine]	21.6 nM	1.3 nM	4480 nM
Cc1cc(-c2ccc3c(C4CCC(N(C)C)CC4)c[nH]c3c2)cn2ncnc12 (single isomer, unassigned) [Example 14, N,N-dimethyl-4-(6-(8-methyl-[1,2,4]triazolo[1,5-a]pyridin-6-yl)-1H-indol-3-yl)cyclohexan-1-amine]	80.6 nM	115 nM	3430 nM
Cc1cc(-c2ccc3c(C4CCC(N(C)C)CC4)c[nH]c3c2)cn2ncnc12 (single isomer, unassigned) [Example 15, N,N-dimethyl-4-(6-(8-methyl-[1,2,4]triazolo[1,5-a]pyridin-6-yl)-1H-indol-3-yl) cyclohexan-1-amine]	29.4 nM	25.9 nM	1130 nM
Cc1cc2c(C3CCC(NCC(=O)N(C)C)CC3)n[nH]c2cc1-c1cc(C)c2ncnn2c1 (single isomer, unassigned) [Example 28, N,N-dimethyl-2-((4-(5-methyl-6-(8-methyl-[1,2,4]triazolo[1,5-a]pyridin-6-yl)-1H-indazol-3-yl)cyclohexyl)amino)acetamide]	12.4 nM	0.4 nM	4410 nM
Cc1cc2c(C3CCC(NCC(=O)N(C)C)CC3)n[nH]c2cc1-c1cc(C)c2ncnn2c1 (single isomer, unassigned) [Example 29, N,N-dimethyl-2-((4-(5-methyl-6-(8-methyl-[1,2,4]triazolo[1,5-a]pyridin-6-yl)-1H-indazol-3-yl)cyclohexyl)amino)acetamide]	39 nM	0.9 nM	6340 nM
Cc1cc2c(C3CCC(N(C)C4COC4)CC3)n[nH]c2cc1-c1cc(C)c2ncnn2c1 (single isomer, unassigned) [Example 32, N-methyl-N-(4-(5-methyl-6-(8-methyl-[1,2,4]triazolo[1,5-a]pyridin-6-yl)-1H-indazol-3-yl)cyclohexyl)oxetan-3-amine]	18.3 nM	0.3 nM	4440 nM
Cc1cc2c(C3CCC(N(C)C4COC4)CC3)n[nH]c2cc1-c1cc(C)c2ncnn2c1 (single isomer, unassigned) [Example 33, N-methyl-N-(4-(5-methyl-6-(8-methyl-[1,2,4]triazolo[1,5-a]pyridin-6-yl)-1H-indazol-3-yl)cyclohexyl)oxetan-3-amine]	96.7 nM	3 nM	9010 nM
Cc1cc2c(C3CCC(NC4COC4)CC3)n[nH]c2cc1-c1cc(C)c2ncnn2c1 (single isomer, unassigned) [Example 34, N-(4-(5-methyl-6-(8-methyl-[1,2,4]triazolo[1,5-a]pyridin-6-yl)-1H-indazol-3-yl)cyclohexyl)oxetan-3-amine]	8.1 nM	0.2 nM	3950 nM
Cc1cc2c(C3CCC(NC4COC4)CC3)n[nH]c2cc1-c1cc(C)c2ncnn2c1 (single isomer, unassigned) [Example 35, N-(4-(5-methyl-6-(8-methyl-[1,2,4]triazolo[1,5-a]pyridin-6-yl)-1H-indazol-3-yl)cyclohexyl)oxetan-3-amine]	29.7 nM	0.8 nM	3100 nM
Cc1cc2c(C3CCC(NC(C)C)CC3)n[nH]c2cc1-c1cc(C)c2ncnn2c1 (single isomer, unassigned) [Example 38, N-isopropyl-4-(5-methyl-6-(8-methyl-[1,2,4]triazolo[1,5-a]pyridin-6-yl)-1H-indazol-3-yl)cyclohexan-1-amine]	6 nM	0.1 nM	≥ 50000 nM
Cc1cc2c(C3CCC(NC(C)C)CC3)n[nH]c2cc1-c1cc(C)c2ncnn2c1 (single isomer, unassigned) [Example 39, N-isopropyl-4-(5-methyl-6-(8-methyl-[1,2,4]triazolo[1,5-a]pyridin-6-yl)-1H-indazol-3-yl) cyclohexan-1-amine]	22.6 nM	0.9 nM	4120 nM
